Results taken from US8895079B2, “Combinations of botanical extracts for promoting cardiovascular health” (National Research Council of Canada, priority 2005, dated 2014).
Marks after values point to notes of the source that are not given here.

Experiments:
[1] = Example 1: weekly body weight and daily feed intake; assay type: in vivo, Male Golden Syrian hamsters; conditions: Example 1, weekly body weight over 4 weeks, FIG. 5
Experimental: Male Golden Syrian Hamsters were purchased from Charles River Co. housed individually in cages for two weeks prior to the commencement of the study. During this adjustment period, animals were fed with regular rodent chow diet with free access to both food and water. A total of 60 hamsters were weighed and randomly assigned to one of four groups of 15 animals each. Animals are subjected to a temperature-controlled environment with a 12:12 h light/dark cycle. Each group was fed with one of the four isocaloric experimental diets for a 4 week period. […] During the course of the experiment, animals were weighed weekly and food consumption was determined on a daily basis over the course of the experiment. During the course of the experiment, data were obtained with regard to food consumption and bodyweight so that the dose of BBRCI was maintained on a mg/kg basis as the animals grew over the 4 weeks experimental period. […] This may have important implications on weight control, healthy weight management strategies, and body composition (increase lean body mass) in humans and animals. […] Thereafter, significant differences in food intake was observed from days 22-25 but this effect disappeared during days 25-28 as a small surgical intervention was performed on each animal on day 25 on the neck area of the animal, which reduced food consumption in each treatment. […]

[2] = tested on: hamsters fed an atherogenic control diet; assay: Example 1: tissue weight relative to body weight and histopathological examination of organs; assay type: in vivo, Male Golden Syrian hamsters
Experimental: Histopathological testing and examination of gross and microscopic examination of thin sections of the various organs were conducted by a certified pathologist. There were no significant changes in the appearance or weight of brain, lung, heart, spleen and kidney. However, the livers of control animals were observably yellowish and heavier than those of animals treated with BBRCI or plant stanols, or the combination of either. Table 3 summarizes the effect of BBRCI and plant stanols on the percent tissue weight relative to body weight.

[3] = tested on: intestinal ABCG8 mRNA; assay: Example 1: intestinal ABCG8 mRNA expression, real-time PCR; assay type: in vivo, Male Golden Syrian hamsters; conditions: intestine; relative expression in reference to a housekeeping gene; Example 1, 4 weeks
Experimental: (§1) Experiments were also conducted to determine the effect on the expression of genes associated with cholesterol in the liver and intestine. Total RNA was extracted and mRNA was converted to cDNA. The mRNA expression was measured by real-time PCR with four repeats and calculated as relative expression in reference to internal control of a housekeeping gene for each sample. […] The function of ABCG5 and ABCG8 in the intestine is to transport cholesterol out of enterocytes and back to the intestine for elimination via the feces. […] The observation of our study (Example 1) has provided a strong support to the synergistic action of BBRCI and PS on cholesterol reduction.

[4] = tested on: intestinal ABCG5 mRNA; assay: Example 1: intestinal ABCG5 mRNA expression, real-time PCR; assay type: in vivo, Male Golden Syrian hamsters; conditions: intestine; relative expression in reference to a housekeeping gene; Example 1, 4 weeks
Experimental: as §1

[5] = tested on: hamsters fed a diet containing 0.25% cholesterol; assay: Example 3: five week hamster study, blood lipid levels, 0.25% cholesterol diet, 0.5% PS; assay type: in vivo, male Golden Syrian hamsters; conditions: BBRCI 100 mg/kg·d and/or PS 0.5% (w/w)
Experimental: In this example, a controlled, five week animal study was performed. Four randomized groups of 12 or 6 male Golden Syrian hamsters were fed isocaloric diets as follows. The dosage of PS was reduced from 1% to 0.5% (w/w) in the diet. Hamster husbandry, living and feeding conditions were similar to that in Example 1. • Control a semi-synthetic casein-corn starch-sucrose diet that contained 0.25% (w/w) cholesterol • BBRCI control diet containing 100 mg/kg·d of BBRCI • PS control diet containing 0.5% (w/w) PS • BBRCI+PS control diet containing 100 mg/kg·d BBRCI and 0.5% (w/w) PS One objective of this example was to determine the effects of each intervention on circulating blood lipids including total cholesterol (T-C), high-density-lipoprotein cholesterol (HDL-C), nonHDL-C (which is indicative of LDL-C levels) and triglyceride (TG) profiles. Table 8 summarizes the effect on blood lipid levels (values are means±SD, n=12). Data were analyzed by one-way ANOVA followed by Tukey test if significance was detected. A significant difference was indicated by a p<0.05. […] When BBRCI and PS were given to hamsters simultaneously, significant synergistic actions were observed on […] and TG levels. A synergistic action of BBRCI and PS was also observed on the ratio of HDL-C and nonHDL-C.

[6] = tested on: hamsters fed a diet containing 0.25% cholesterol; assay: Example 2: tissue weight to body weight ratio; assay type: in vivo, male Golden Syrian hamsters; conditions: Example 2, 5 weeks; BBRCI 100 mg/kg·d and/or PS 1% (w/w); means±SD, n=12
Experimental: In this example, a controlled, five week animal study was performed. A total of 48 male Golden Syrian hamsters were randomized into 4 groups of 12 and fed isocaloric diets as follows. Hamster husbandry, living and feeding conditions were similar to that used for Example 1. • Control a semi-synthetic casein-corn starch-sucrose diet that contained 0.25% (w/w) cholesterol • BBRCI control diet containing 100 mg/kg·d of BBRCI • PS control diet containing 1% (w/w) PS • BBRCI+PS control diet containing 100 mg/kg·d BBRCI and 1% (w/w) PS Table 7 summarizes the effect on tissue weight to body weight ratio (values are means±SD). Data were analyzed by one-way ANOVA followed by Tukey test when a significant treatment effect was detected. A significant difference was indicated by a p<0.05. […] The combination of BBRCI and PS (BBRCI+PS), however, reduced the average liver weight in a strong, statistically significant, and synergistic manner compared to liver weights in the BBRCI and PS groups.

[7] = tested on: liver CYP7A1 mRNA; assay: Example 1: liver CYP7A1 mRNA expression, real-time PCR; assay type: in vivo, Male Golden Syrian hamsters; conditions: relative expression in reference to a housekeeping gene, Example 1, 4 weeks
Experimental: Experiments were also conducted to determine the effect on the expression of genes associated with cholesterol in the liver and intestine. Total RNA was extracted and mRNA was converted to cDNA. The mRNA expression was measured by real-time PCR with four repeats and calculated as relative expression in reference to internal control of a housekeeping gene for each sample. Table 5, FIG. 8b and FIG. 8c summarize the effect of BBRCI and PS on the mRNA expression of CYP7A1 and CYP27A1 in the liver. BBRCI and PS alone tended to increase mRNA expression of both genes. CYP7A1 and CYP27A1 are two rate-limiting enzymes controlling bile acid synthesis, which is one mechanism through which the body removes cholesterol by converting it into bile acids. When BBRCI and PS were combined, a synergistic action appeared to happen.

[8] = 0.25% cholesterol diet, 5 weeks, means±SD

- CYP7A1 mRNA expression [7]: 1.30 ± 0.66
SMILES: COc1ccc2cc3[n+](cc2c1OC)CCc1cc2c(cc1-3)OCO2 [BBRCI, Berberine chloride]
- body weight [1]: trend toward reduced body weights after two weeks
- Liver, percent tissue weight relative to body weight ([2]; Example 1, 4 weeks, BBRCI 100 mg/kg·d and/or PS 1% (w/w)): 4.4 ± 0.4^b percent
- appearance of fatty liver ([2]; Example 1, compared to the livers of the control animals): markedly reduced the appearance of fatty liver
- ABCG8 mRNA expression [3]: 1.33 ± 0.45^a
- ABCG5 mRNA expression [4]: 2.37 ± 0.70^a
- nonHDL-C Concentration ([5]; 0.25% cholesterol diet, 5 weeks): 173.5 ± 66.5^ab mg/dl
- HDL-C Concentration [5, 8]: 93.1 ± 27.1 mg/dL
- T-C Concentration [5, 8]: 264.7 ± 49.8^a mg/dl
- TG Concentration [5, 8]: 549.1 ± 225.3^a mg/dl
- HDL-C % difference from Control ([5]; Example 3, 5 weeks): 1.7%
- HDL-C/nonHDL-C % difference from Control ([5]; Example 3, 5 weeks): 29%
- T-C % difference from Control ([5]; Example 3, 5 weeks): −7.8%
- TG % difference from Control ([5]; Example 3, 5 weeks): −0.2%
- nonHDL-C % difference from Control ([5]; Example 3, 5 weeks): −11.1%
- HDL-C/nonHDL-C ([5]; ratio, 0.25% cholesterol diet, 5 weeks): 0.66 ± 0.41^b
- Heart, tissue weight to body weight ratio [6]: 0.37 ± 0.03
- Liver, tissue weight to body weight ratio [6]: 4.67 ± 0.38^ab
- Right kidney, tissue weight to body weight ratio [6]: 0.35 ± 0.03
